Measured values from ChEMBL document CHEMBL1157513, “Enhanced anti-influenza A virus activity of (-)-epigallocatechin-3-O-gallate fatty acid monoester derivatives: effect of alkyl chain length” (Bioorg Med Chem Lett, 2008).

How the values were obtained:
[1] = system: Influenza A virus; assay: Antiviral activity against Influenza A/PR8/34(H1N1)) in dog MDCK cells; type: functional, organism-based; settings: A/Puerto Rico/8/1934(H1N1)
[2] = system: Influenza A virus; assay: Antiviral activity against Influenza (A/PR8/34(H1N1)); type: functional, organism-based; settings: A/Puerto Rico/8/1934(H1N1)
[3] = Cytotoxicity against MDCK cells by MTT assay; type: cell-based, Canis lupus familiaris; settings: dog
[4] = Selectivity, ratio of CC50 for dog MDCK cells to EC50 for Influenza (A/PR8/34(H1N1))
[5] = Selectivity, ratio of CC50 for dog MDCK cells to EC50 for Influenza (A/PR8/34(H1N1)) in MDCK cells

SMILES	EC50 [1] [µM]	EC50 [2] [µM]	CC50 [3] [µM]	Ratio CC50/EC50 [4]	Ratio CC50/EC50 [5]
CC(=O)Oc1cc(OC(C)=O)c2c(c1)O[C@H](c1cc(OC(C)=O)c(OC(C)=O)c(OC(C)=O)c1)[C@H](OC(=O)c1cc(OC(C)=O)c(OC(C)=O)c(OC(C)=O)c1)C2	77	8.49	–	–	–
O=C(O[C@@H]1Cc2c(O)cc(O)cc2O[C@@H]1c1cc(O)c(O)c(O)c1)c1cc(O)c(O)c(O)c1 [EPIGALOCATECHIN GALLATE]	94.6	0.391	275	703	2.91
